# Experimental data reported in US9452980B2, “Substituted benzamides” (Hoffmann-La Roche Inc., priority 2009, dated 2016).
# Structures can show the parent of a compound that is named as a salt. Where two headings read alike, the source gives them in different places.
# Columns and labels:
# mouse TAAR1 = mouse TAAR1 (Mus musculus (Mouse), UniProt Q923Y8); assay: Radioligand binding assay on mouse TAAR1; details: read-out: Ki (μM) mouse
# Summary of the method: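 Displacement of the tritiated oxazol-2-ylamine radioligand was measured by filtration and scintillation counting after 1 h incubation at 4 °C. Test concentrations ran 10 pM–10 μM in duplicate, with 10 μM cold ligand giving nonspecific binding. The receptor source was membranes of a stable mouse TAAR1 HEK293 line.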
# rat TAAR1 = rat TAAR1 (Rattus norvegicus (Rat), UniProt Q923Y9); assay: Radioligand binding assay on rat TAAR1; details: read-out: Ki (μM) rat
# Sequence of rat TAAR1 (Q923Y9 whole entry): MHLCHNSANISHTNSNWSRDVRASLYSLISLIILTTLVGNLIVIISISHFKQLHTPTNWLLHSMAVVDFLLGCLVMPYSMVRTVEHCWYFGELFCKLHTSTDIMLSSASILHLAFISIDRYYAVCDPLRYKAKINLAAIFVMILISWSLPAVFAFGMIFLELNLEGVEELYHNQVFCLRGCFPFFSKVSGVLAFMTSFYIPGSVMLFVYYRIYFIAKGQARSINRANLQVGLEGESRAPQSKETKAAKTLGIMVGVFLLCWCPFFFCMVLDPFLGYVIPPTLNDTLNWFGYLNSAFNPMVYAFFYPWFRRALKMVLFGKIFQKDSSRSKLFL
# Summary of the method: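 Membranes from HEK293 cells stably expressing rat TAAR1, with Kd checked per batch by saturation. Competition with ³H-(S)-4-[(ethyl-phenyl-amino)-methyl]-4,5-dihydro-oxazol-2-ylamine, compounds 10 pM–10 μM in duplicate, 1 hr at 4 °C. Filtration then scintillation counting; nonspecific binding defined with 10 μM unlabeled ligand.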
# [1] = mouse TAAR1, HEK-293 membranes, first value of cell mouse/rat
# [2] = rat TAAR1, HEK-293 membranes, second value of cell mouse/rat
# Sequence of mouse TAAR1 (Q923Y8 whole entry): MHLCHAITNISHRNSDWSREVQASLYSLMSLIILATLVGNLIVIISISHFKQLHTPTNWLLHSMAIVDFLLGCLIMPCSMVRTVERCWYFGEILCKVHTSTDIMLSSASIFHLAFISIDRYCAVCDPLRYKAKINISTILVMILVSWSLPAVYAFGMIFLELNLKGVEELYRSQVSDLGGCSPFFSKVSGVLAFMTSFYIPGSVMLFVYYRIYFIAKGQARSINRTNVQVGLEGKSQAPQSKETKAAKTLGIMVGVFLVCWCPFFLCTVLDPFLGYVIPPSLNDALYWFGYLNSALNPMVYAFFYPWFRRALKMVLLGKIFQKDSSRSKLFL
Structure (SMILES),Ki (mouse TAAR1; [1]) [µM],Ki (rat TAAR1; [2]) [µM],Ki (mouse TAAR1) [µM],Ki (rat TAAR1) [µM]
"O=C(Nc1ccc(CCC2CCCCN2)cc1)c1cnc(Cl)cn1 (racemic) [Example 174, (RS)-5-Chloro-N-(4-(2-(piperidin-2-yl)ethyl)phenyl)pyrazine-2-carboxamide hydrochloride]",0.437,0.0159,,
"O=C(Nc1ccc(CCC2CCCCN2)cc1)c1ccc(C(F)(F)F)cc1 (racemic) [Example 175, (RS)—N-(4-(2-(Piperidin-2-yl)ethyl)phenyl)-4-(trifluoromethyl)benzamide hydrochloride]",0.0473,0.0027,,
"O=C(Nc1ccc(CCC2CCCCN2)cc1)c1ccc(Cl)c(Cl)c1 (racemic) [Example 176, (RS)-3,4-Dichloro-N-(4-(2-(piperidin-2-yl)ethyl)phenyl)benzamide hydrochloride]",0.0253,0.001,,
"C#Cc1ccc(C(=O)Nc2ccc(CCC3CCCCN3)cc2)cc1 (racemic) [Example 177, (RS)-4-Ethynyl-N-(4-(2-(piperidin-2-yl)ethyl)phenyl)benzamide hydrochloride]",0.114,0.0067,,
"O=C(Nc1ccc(C2CCCNC2)cc1)c1ccc(OCC(F)(F)F)nc1 (racemic) [Example 178, (RS)—N-(4-(Piperidin-3-yl)phenyl)-6-(2,2,2-trifluoroethoxy)nicotinamide hydrochloride]",0.0032,0.002,,
"CCOc1ccc(C(=O)Nc2ccc(C3CCCNC3)cc2)nc1 (racemic) [Example 179, (RS)-5-Ethoxy-pyridine-2-carboxylic acid (4-piperidin-3-yl-phenyl)-amide; hydrochloride]",0.0008,0.0022,,
"O=C(Nc1ccc(C2CCCNC2)cc1)c1ccc(F)cn1 (racemic) [Example 180, (RS)-5-Fluoro-N-(4-(piperidin-3-yl)phenyl)picolinamide hydrochloride]",0.0507,0.0131,,
"Cc1ccc(C(=O)Nc2ccc(C3CCNC3)cc2)cc1 (racemic) [Example 182, (RS)-4-Methyl-N-(4-(pyrrolidin-3-yl)phenyl)benzamide hydrochloride]",,0.0025,0.0253,
"Cc1ccc(C(=O)Nc2ccc(C3CCCNC3)cc2)cc1 (racemic) [Example 185, (RS)-4-Methyl-N-(4-(piperidin-3-yl)phenyl)benzamide hydrochloride]",0.0333,0.0026,,
"COc1ccc(C(=O)Nc2ccc(C3CCCNC3)cc2)cc1 (racemic) [Example 186, (RS)-4-Methoxy-N-(4-(piperidin-3-yl)phenyl)benzamide hydrochloride]",0.0486,0.0027,,
"O=C(Nc1ccc(C2CNCCO2)cc1)c1ccccc1 (racemic) [Example 188, (RS)—N-(4-(Morpholin-2-yl)phenyl)benzamide hydrochloride]",0.138,,,0.0055
"Cc1ccc(C(=O)Nc2ccc(C3CNCCO3)cc2)cc1 (racemic) [Example 189, (RS)-4-Methyl-N-(4-(morpholin-2-yl)phenyl)benzamide hydrochloride]",0.0343,0.0016,,
"COc1ccc(C(=O)Nc2ccc(C3CNCCO3)cc2)cc1 (racemic) [Example 190, (RS)-4-Methoxy-N-(4-(morpholin-2-yl)phenyl)benzamide hydrochloride]",0.0501,0.0021,,
"O=C(Nc1ccc(C2CCCNC2)cc1)c1ccc(OCC(F)(F)F)cn1 (racemic) [Example 191, (RS)—N-(4-(Piperidin-3-yl)phenyl)-5-(2,2,2-trifluoroethoxy)picolinamide hydrochloride]",0.011,0.0074,,
"O=C(Nc1ccc(C2CNCCO2)cc1)c1ccc(OCc2ccccc2)cc1 (racemic) [Example 192, (RS)-4-(benzyloxy)-N-(4-(morpholin-2-yl)phenyl)benzamide hydrochloride]",0.0052,0.0113,,
"O=C(Nc1ccc(C2CNCCO2)cc1)c1ccc(Cl)nc1 (racemic) [Example 193, (RS)-6-chloro-N-(4-(morpholin-2-yl)phenyl)nicotinamide hydrochloride]",0.0406,,,0.0034
"N#Cc1ccc(C(=O)Nc2ccc(C3CNCCO3)cc2)cn1 (racemic) [Example 194, (RS)-2-(4-(6-cyanonicotinamido)phenyl)morpholin-4-ium chloride]",0.0982,0.005,,
"CCOc1ccc(C(=O)Nc2ccc(C3CNCCO3)cc2)cc1 (racemic) [Example 197, (RS)-4-Ethoxy-N-(4-(morpholin-2-yl)phenyl)benzamide hydrochloride]",0.0177,,,0.0016

Structure (SMILES),Ki (mouse TAAR1; [1]) [µM],Ki (rat TAAR1; [2]) [µM],Ki (mouse TAAR1) [µM],Ki (rat TAAR1) [µM]
"CCc1ccc(C(=O)Nc2ccc(C3CNCCO3)cc2)cc1 (racemic) [Example 198, (RS)-4-Ethyl-N-(4-(morpholin-2-yl)phenyl)benzamide hydrochloride]",0.0147,0.0028,,
"O=C(Nc1ccc(C2CNCCO2)cc1)c1ccc(O)cc1 (racemic) [Example 199, (RS)-4-Hydroxy-N-(4-(morpholin-2-yl)phenyl)benzamide hydrochloride]",1.16,0.238,,
"O=C(Nc1ccc(C2CNCCO2)cc1)c1ccc(Oc2ccc(Cl)cc2)cc1 (racemic) [Example 206, (RS)-4-(4-Chlorophenoxy)-N-(4-(morpholin-2-yl)phenyl)benzamide hydrochloride]",0.0026,0.0011,,
"O=C(Nc1ccc(C2CNCCO2)cc1)c1cccc(Cl)c1 (racemic) [Example 209, (RS)-3-chloro-N-(4-(morpholin-2-yl)phenyl)benzamide hydrochloride]",0.0078,0.0016,,
"O=C(Nc1ccc(C2CNCCO2)cc1)c1cncc(Cl)c1 (racemic) [Example 210, (RS)-5-chloro-N-(4-(morpholin-2-yl)phenyl)nicotinamide hydrochloride]",0.0436,0.0062,,
"COC(=O)c1ccc(COc2ccc(C(=O)Nc3ccc(C4CNCCO4)cc3)cc2)cc1 (racemic) [Example 211, (RS)-Methyl 4-((4-(4-(morpholin-2-yl)phenylcarbamoyl)phenoxy)methyl)benzoate hydrochloride]",0.004,0.0009,,
"O=C(O)c1ccc(COc2ccc(C(=O)Nc3ccc(C4CNCCO4)cc3)cc2)cc1 (racemic) [Example 212, (RS)-4-((4-(4-(morpholin-2-yl)phenylcarbamoyl)phenoxy)methyl)benzoic acid hydrochloride]",2.5,0.296,,
"COC(=O)c1ccc(Oc2ccc(C(=O)Nc3ccc(C4CNCCO4)cc3)cc2)cc1Cl (racemic) [Example 213, (RS)-Methyl 2-chloro-4-(4-(4-(morpholin-2-yl)phenylcarbamoyl)phenoxy)benzoate hydrochloride]",0.0012,0.001,,
"O=C(Nc1ccc(C2CNCCO2)cc1)c1ccc(OCC2CC2)cc1 (racemic) [Example 214, (RS)-4-Cyclopropylmethoxy-N-(4-morpholin-2-yl-phenyl)-benzamide hydrochloride]",,0.0016,0.0057,
"O=C(Nc1ccc(C2CNCCO2)cc1)c1ccc(Oc2ccc(C(=O)O)c(Cl)c2)cc1 (racemic) [Example 215, (RS)-2-Chloro-4-(4-(4-(morpholin-2-yl)phenylcarbamoyl)phenoxy)benzoic acid hydrochloride]",2.82,2.31,,
"CSc1ccc(C(=O)Nc2ccc(C3CNCCO3)cc2)cc1 (racemic) [Example 216, (RS)-4-(Methylthio)-N-(4-(morpholin-2-yl)phenyl)benzamide hydrochloride]",0.0176,,,0.0012
"Cc1nc(C(=O)Nc2ccc(C3CNCCO3)cc2)cs1 (racemic) [Example 217, (RS)-2-Methyl-N-(4-(morpholin-2-yl)phenyl)thiazole-4-carboxamide hydrochloride]",0.335,0.0941,,
"O=C(Nc1ccc(C2CNCCO2)cc1)c1ccnc(Cl)c1 (racemic) [Example 218, (RS)-2-Chloro-N-(4-(morpholin-2-yl)phenyl)isonicotinamide hydrochloride]",0.0872,0.0087,,
"O=C(Nc1ccc(C2CNCCO2)cc1)c1cnc(Cl)c(Cl)c1 (racemic) [Example 219, (RS)-5,6-Dichloro-N-(4-(morpholin-2-yl)phenyl)nicotinamide hydrochloride]",0.0059,0.0031,,
"CC(CO)(CCl)COc1ccc(C(=O)Nc2ccc(C3CNCCO3)cc2)cc1 (racemic) [Example 220, (RS)-4-(2-Chloromethyl-3-hydroxy-2-methyl-propoxy)-N-(4-morpholin-2-yl-phenyl)-benzamide]",0.0435,0.0024,,
"O=C(Nc1ccc(C2CNCCO2)cc1)c1cc(Cl)nc(Cl)c1 (racemic) [Example 221, (RS)-2,6-Dichloro-N-(4-(morpholin-2-yl)phenyl)isonicotinamide hydrochloride]",,,0.005,0.0037
"O=C(Nc1ccc(C2CNCCO2)cc1)c1ccc(OCC(F)(F)F)nc1 (racemic) [Example 222, (RS)—N-(4-(Morpholin-2-yl)phenyl)-6-(2,2,2-trifluoroethoxy)nicotinamide hydrochloride]",,,0.0037,0.0033
"CC1(COc2ccc(C(=O)Nc3ccc(C4CNCCO4)cc3)cc2)COC1 (racemic) [Example 228, (RS)-4-((3-Methyloxetan-3-yl)methoxy)-N-(4-(morpholin-2-yl)phenyl)benzamide]",0.199,0.0608,,
